Laboratory results as given in PubChem BioAssay (NCI).
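These data come from cells grown in 96-well plates and exposed to compound for 48 hours at five concentrations. GI50 = concentration required for 50% inhibition of growth. TGI denotes the concentration required for complete inhibition of growth.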

Assays:
Experiment in all cases: inhibition of tumour cell growth, NCI panel, 48 h
[1] = system: 786-0 renal
[2] = system: A498 renal
[3] = system: A549 NSCLC
[4] = system: ACHN renal
[5] = system: COLO 205 colon
[6] = system: DMS 114 small cell lung
[7] = system: DMS 273 small cell lung
[8] = system: EKVX NSCLC
[9] = system: HCT-116 colon
[10] = system: HCT-15 colon
[11] = system: HL-60(TB) leukemia
[12] = system: HOP-18 NSCLC
[13] = system: HOP-92 NSCLC
[14] = system: HT29 colon
[15] = system: IGROV1 ovarian
[16] = system: K-562 leukemia
[17] = system: KM12 colon
[18] = system: KM20L2 colon
[19] = system: LOX IMVI melanoma
[20] = system: LXFL 529 NSCLC
[21] = system: M14 melanoma
[22] = system: M19-MEL melanoma
[23] = system: MALME-3M melanoma
[24] = system: MOLT-4 leukemia
[25] = system: NCI-H23 lung
[26] = system: NCI-H460 lung
[27] = system: NCI-H522 lung
[28] = system: OVCAR-3 ovarian
[29] = system: OVCAR-4 ovarian
[30] = system: OVCAR-5 ovarian
[31] = system: OVCAR-8 ovarian
[32] = system: RPMI-8226 leukemia
[33] = system: RXF 393 renal
[34] = system: RXF-631 renal
[35] = system: SF-268 CNS
[36] = system: SF-295 CNS
[37] = system: SF-539 CNS
[38] = system: SK-MEL-2 melanoma
[39] = system: SK-MEL-28 melanoma
[40] = system: SK-OV-3 ovarian
[41] = system: SN12C renal
[42] = system: SNB-19 CNS
[43] = system: SNB-75 CNS
[44] = system: SNB-78 CNS
[45] = system: SW-620 colon
[46] = system: TK-10 renal
[47] = system: UACC-257 melanoma
[48] = system: UACC-62 melanoma
[49] = system: UO-31 renal
[50] = system: XF 498 CNS
[51] = system: CAKI-1 renal
[52] = system: CCRF-CEM leukemia
[53] = system: DLD-1 colon
[54] = system: HOP-62 NSCLC
[55] = system: NCI-H226 lung
[56] = system: SK-MEL-5 melanoma
[57] = system: SR leukemia
[58] = system: U251 CNS
[59] = system: HCC-2998 colon

O/N=C1/C(=C/c2ccccc2)CCCC1C(NO)c1ccccc1 (configuration not stated)
TGI [1]: > 100 µM
TGI [2]: > 100 µM
TGI [3]: > 100 µM
TGI [4]: > 100 µM
TGI [5]: > 100 µM
TGI [6]: > 100 µM
TGI [7]: > 100 µM
TGI [8]: > 100 µM
TGI [9]: > 100 µM
TGI [10]: > 100 µM
TGI [11]: 5.03 µM
TGI [12]: > 100 µM
TGI [13]: > 100 µM
TGI [14]: > 100 µM
TGI [15]: > 100 µM
TGI [16]: > 100 µM
TGI [17]: > 100 µM
TGI [18]: > 100 µM
TGI [19]: > 100 µM
TGI [20]: > 100 µM
TGI [21]: > 100 µM
TGI [22]: > 100 µM
TGI [23]: > 100 µM
TGI [24]: 90.8 µM
TGI [25]: > 100 µM
TGI [26]: > 100 µM
TGI [27]: > 100 µM
TGI [28]: > 100 µM
TGI [29]: > 100 µM
TGI [30]: > 100 µM
TGI [31]: > 100 µM
TGI [32]: > 100 µM
TGI [33]: > 100 µM
TGI [34]: > 100 µM
TGI [35]: > 100 µM
TGI [36]: > 100 µM
TGI [37]: > 100 µM
TGI [38]: > 100 µM
TGI [39]: > 100 µM
TGI [40]: > 100 µM
TGI [41]: > 100 µM
TGI [42]: > 100 µM
TGI [43]: > 100 µM
TGI [44]: > 100 µM
TGI [45]: > 100 µM
TGI [46]: > 100 µM
TGI [47]: > 100 µM
TGI [48]: > 100 µM
TGI [49]: > 100 µM
TGI [50]: 99.2 µM

CCOC(=O)CC(=Nc1cc(C)on1)N(CC)CC
TGI [1]: > 100 µM
TGI [2]: > 100 µM
TGI [3]: > 100 µM
TGI [4]: > 100 µM
TGI [51]: > 100 µM
TGI [52]: > 100 µM
TGI [5]: > 100 µM
TGI [53]: > 100 µM
TGI [6]: > 100 µM
TGI [7]: > 100 µM
TGI [8]: > 100 µM
TGI [9]: > 100 µM
TGI [10]: > 100 µM
TGI [54]: > 100 µM
TGI [13]: > 100 µM
TGI [14]: > 100 µM
TGI [15]: > 100 µM
TGI [16]: > 100 µM
TGI [17]: > 100 µM
TGI [18]: > 100 µM
TGI [20]: > 100 µM
TGI [21]: > 100 µM
TGI [22]: > 100 µM
TGI [23]: > 100 µM
TGI [24]: > 100 µM
TGI [55]: > 100 µM
TGI [25]: > 100 µM
TGI [26]: > 100 µM
TGI [27]: > 100 µM
TGI [28]: > 100 µM
TGI [30]: > 100 µM
TGI [31]: > 100 µM
TGI [32]: > 100 µM
TGI [35]: > 100 µM
TGI [37]: > 100 µM
TGI [38]: > 100 µM
TGI [39]: > 100 µM
TGI [56]: > 100 µM
TGI [40]: > 100 µM
TGI [41]: > 100 µM
TGI [42]: > 100 µM
TGI [43]: > 100 µM
TGI [44]: > 100 µM
TGI [57]: > 100 µM
TGI [45]: > 100 µM
TGI [46]: > 100 µM
TGI [58]: > 100 µM
TGI [48]: > 100 µM
TGI [49]: > 100 µM
TGI [50]: > 100 µM

CCC[CH2][Sn]1([CH2]CCC)[O]CC([CH2][Sn]([c]2ccccc2)([c]2ccccc2)[c]2ccccc2)[O]1 (configuration not stated)
GI50 [1]: 11.8 µM
TGI [1]: 24.5 µM
GI50 [3]: 16.5 µM
TGI [3]: 31.4 µM
GI50 [4]: 17 µM
TGI [4]: 32.5 µM
GI50 [52]: 2.26 µM
TGI [52]: 20.8 µM
GI50 [5]: 10.4 µM
TGI [5]: 23 µM
GI50 [53]: 5.92 µM
TGI [53]: 18.4 µM
GI50 [6]: 3.18 µM
TGI [6]: 13.5 µM
GI50 [8]: 13.4 µM
TGI [8]: 26.3 µM
GI50 [59]: 10.2 µM
TGI [59]: 22.4 µM
GI50 [10]: 13.2 µM
TGI [10]: 26.4 µM
GI50 [11]: 2.47 µM
TGI [11]: 8.38 µM
GI50 [12]: 12.7 µM
TGI [12]: 25.2 µM
GI50 [13]: 11.9 µM
TGI [13]: 25.7 µM
GI50 [15]: 15.2 µM
TGI [15]: 29.2 µM
GI50 [16]: 2.98 µM
TGI [16]: 13.6 µM
GI50 [17]: 12.2 µM
TGI [17]: 25.3 µM
GI50 [21]: 15.9 µM
TGI [21]: 31.4 µM
GI50 [22]: 8.82 µM
TGI [22]: 21.2 µM
GI50 [23]: 13.6 µM
TGI [23]: 26.4 µM
GI50 [24]: 3.22 µM
TGI [24]: 28.5 µM
GI50 [55]: 20.7 µM
TGI [55]: 38.8 µM
GI50 [27]: 1.4 µM
TGI [27]: 3.37 µM
GI50 [28]: 14.9 µM
TGI [28]: 29.9 µM
GI50 [30]: 17 µM
TGI [30]: 31 µM
GI50 [31]: 15.2 µM
TGI [31]: 34 µM
GI50 [32]: 2.85 µM
TGI [32]: 18.7 µM
GI50 [33]: 3.21 µM
TGI [33]: 15.4 µM
GI50 [34]: 10.7 µM
TGI [34]: 30.5 µM
GI50 [35]: 6.79 µM
TGI [35]: 19 µM
GI50 [36]: 16.2 µM
TGI [36]: 30.4 µM
GI50 [37]: 15 µM
TGI [37]: 28.3 µM
GI50 [38]: 10.9 µM
TGI [38]: 23.4 µM
GI50 [39]: 5.95 µM
TGI [39]: 20.2 µM
GI50 [40]: 19.1 µM
TGI [40]: 33.2 µM
GI50 [41]: 14 µM
TGI [41]: 27.7 µM
GI50 [42]: 15.1 µM
TGI [42]: 28.6 µM
GI50 [43]: 6.49 µM
TGI [43]: 20.2 µM
GI50 [44]: 10.2 µM
TGI [44]: 26.4 µM
GI50 [57]: 3.78 µM
TGI [57]: > 100 µM
GI50 [45]: 3.9 µM
TGI [45]: 15.7 µM
GI50 [46]: 13.8 µM
TGI [46]: 27 µM
GI50 [58]: 6.5 µM
TGI [58]: 19.9 µM
GI50 [47]: 12.6 µM
TGI [47]: 26.6 µM
GI50 [48]: 10.6 µM
TGI [48]: 22.6 µM
GI50 [49]: 15.3 µM
TGI [49]: 28.7 µM
GI50 [50]: 15.3 µM
TGI [50]: 28.6 µM
